# According to PubChem BioAssay AID977619 (Broad Institute, 2014):
# “And” between values parts separate entries of the source, which are not always exact repeats. Equal values may be shown once. The source made the active and inactive calls.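 Rule for the calls: active = viability signal falls, with AC50 at or below a set limit tied to the top tested dose; inconclusive = flat curve with moderate signal loss, or poor fit; inactive = the rest, including rising signal.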
# Tested on: not listed separately
# Experiment: HepG2 cell cytotoxicity, dose response, cytotoxicity control, CellTiter-Glo luminescence, dry powder, set 13 (AID 977619)
# Details: HepG2 viability, CellTiter-Glo ATP luminescence, 72 h; at 30 µM (top of the series)
row,SMILES,"activity change, negative = cytotoxicity"
1,Cc1cnc(NC(=O)c2cccc(S(=O)(=O)N(C)C)c2)s1,0.262% (inactive)
2,Cc1cnc(NC(=O)c2cc(S(=O)(=O)N(C)C)ccc2N2CCCCC2)s1,-24.5% (inactive)
3,Cc1cnc(NC(=O)c2cc(S(=O)(=O)N(CC(C)C)CC(C)C)ccc2N2CCCC2)s1,2.42% (inactive)
4,Cc1cnc(NC(=O)c2cc(S(=O)(=O)N3CCCCC3)ccc2N2CCCC2)s1,-1.49% (inactive)
5,COc1cccc2sc(NC(=O)c3cc(S(=O)(=O)N(C)C)ccc3N3CCCC3)nc12,-0.843% (inactive)
6,COc1ccc2nc(NC(=O)c3cc(S(=O)(=O)N(C)C)ccc3N3CCCC3)sc2c1,-15% (inactive)
7,CCN(CC)c1ccc(S(=O)(=O)N(C)C)cc1C(=O)Nc1ncc(C)s1,-14.5% (inactive)
8,CN(C)S(=O)(=O)c1ccc(N2CCCC2)c(C(=O)Nc2nc3ccccc3s2)c1,-28% (inactive)
9,CN(C)CCCN(Cc1cc2ccccc2[nH]c1=O)C(=O)Nc1ccccc1,-20.2% (inactive)
10,COc1ccc2sc(NC(=O)c3cc(S(=O)(=O)N(C)C)ccc3N3CCCC3)nc2c1,12.7% (inactive)
11,CN(C)C(=O)c1cc(S(=O)(=O)N(C)C)ccc1N1CCCC1,-5.71% (inactive)
12,Cc1cnc(NC(=O)c2cc(S(=O)(=O)N(C)c3ccccc3)ccc2N2CCCC2)s1,2.13% (inactive)
13,Cc1cnc(NC(=O)c2cc(S(=O)(=O)N(C)C)ccc2N2CCC2)s1,-16.2% (inactive)
14,Cc1cnc(NC(=O)c2cc(S(=O)(=O)N3CCOCC3)ccc2N2CCCC2)s1,-27.5% (inactive)
15,Cc1cnc(NC(=O)c2cc(S(=O)(=O)N(C)C)ccc2N2CCNCC2)s1,2.09% (inactive)
16,CN(C)S(=O)(=O)c1ccc(N2CCCC2)c(C(=O)Nc2cccnc2)c1,-8.96% (inactive)
17,CN(C)S(=O)(=O)c1ccc(N2CCCC2)c(C(=O)Nc2nccs2)c1,-14.2% (inactive)
18,Cc1cnc(NC(=O)c2cc(S(=O)(=O)N(C)C)ccc2N(C)C)s1,-8.52% (inactive)
19,CN(C)S(=O)(=O)c1ccc(N2CCCC2)c(C(=O)Nc2ccccc2)c1,-16.8% (inactive)

row,SMILES,"activity change, negative = cytotoxicity"
1,Cc1cnc(NC(=O)c2cc(S(=O)(=O)N(C)C)ccc2C2CCCC2)s1,1.56% (inactive)
2,CN(C)CCCN(Cc1cc2ccccc2[nH]c1=O)C(=O)NCc1ccccc1,-20.2% (inactive)
3,Cc1nnc(NC(=O)c2cc(S(=O)(=O)N(C)C)ccc2N2CCCC2)s1,-4.85% (inactive)
4,Cc1ccc(NC(=O)c2cc(S(=O)(=O)N(C)C)ccc2N2CCCC2)cc1,-24% (inactive)
5,Cc1ccccc1NC(=O)c1cc(S(=O)(=O)N(C)C)ccc1N1CCCC1,-8.5% (inactive)
6,CN(C)S(=O)(=O)c1ccc(N2CCCC2)c(C(=O)Nc2ccccc2Cl)c1,0.028% (inactive)
7,Cc1nc(NC(=O)c2cc(S(=O)(=O)N(C)C)ccc2N2CCCC2)n[nH]1,7.89% (inactive)
8,COc1ccc(NC(=O)c2cc(S(=O)(=O)N(C)C)ccc2N2CCCC2)cc1,-5.62% (inactive)
9,CCN(CC)S(=O)(=O)c1ccc(N2CCCC2)c(C(=O)Nc2ncc(C)s2)c1,-6.49% (inactive)
10,CN(C)S(=O)(=O)c1ccc(N2CCCC2)c(C(=O)NC2CCCCC2)c1,-17.5% (inactive)
11,Cc1cnc(NC(=O)c2cc(S(=O)(=O)N3CCNCC3)ccc2N2CCCC2)s1,-16.2% (inactive)
12,COc1ccccc1NC(=O)c1cc(S(=O)(=O)N(C)C)ccc1N1CCCC1,-1.12% (inactive)
13,CN(C)S(=O)(=O)c1ccc(N2CCCC2)c(C(=O)Nc2ccc(Br)cc2)c1,3.71% (inactive)
14,CN(C)S(=O)(=O)c1ccc(N2CCCC2)c(C(=O)N2CCOCC2)c1,-23.2% (inactive)
15,CN(C)S(=O)(=O)c1ccc(N2CCCC2)c(C(=O)Nc2cccc(F)c2)c1,-10% (inactive)
16,Cc1cnc(NC(=O)c2cc(S(=O)(=O)NCc3ccccc3)ccc2N2CCCC2)s1,-8.91% (inactive)
17,CN(C)S(=O)(=O)c1ccc(N2CCCC2)c(C(=O)Nc2ccccc2F)c1,0.657% (inactive)
18,Cc1cnc(NC(=O)c2cc(S(=O)(=O)N(C)C)ccc2N2CCCC2)s1,-11% (inactive) and -24.4% (inactive)
19,CN(C)S(=O)(=O)c1ccc(N2CCCC2)c(C(=O)Nc2ccncc2)c1,-16.4% (inactive)

# Tested on: HepG2 viability, CellTiter-Glo ATP luminescence, 72 h
# Experiment: as above
# Details: not given
row,SMILES,AC50
1,Cc1cnc(NC(=O)c2cc(S(=O)(=O)N3CCCC3)ccc2N2CCCC2)s1,> 60 µM (inactive)
2,Cc1csc(NC(=O)c2cc(S(=O)(=O)N(C)C)ccc2N2CCCC2)n1,> 60 µM (inactive)
